Test results published in patent publication US20090274773A1, “ANTIPROLIFERATIVE COMBINATION COMPRISING CYC-682 AND A CYTOTOXIC AGENT” (Cyclacel Limited, priority 2005, published 2009).
Read-outs that look alike come from different tables or passages of the source.

Legend:
Assay type in all cases: cell-based, human
NSCLC cell line H1299 = experiment: CNDAC combinations (alamar blue, Calcusyn Combination Index); conditions: for Combination Index at ED50, Concomitant / Combination Index at ED75, Concomitant / Combination Index at ED90, Concomitant: simultaneous treatment 72 h
Method: Experiments in the NSCLC cell lines H1299 or RERF-LC-MA were performed in 96-well plates, with cells seeded at a density of 3,000/well, in DMEM containing 10% (v/v) FCS. Stock solutions of all drugs were made up in dimethylsulfoxide (DMSO), with the exception of gemcitabine, which was dissolved in 0.9% (w/v) sterile saline solution.
For experimental assessment of potential synergistic interactions, the concomitant treatment regime involved simultaneous treatment of cells with CNDAC and the other agent under investigation for 72 h, alongside suitable controls of cells treated with the individual compounds alone for 72 hr. In the sequential treatment regimes, one drug was added to the cells 2 h after plating, and left for 24 h. Media was then aspirated, replaced with fresh media containing the second drug and incubated for 72 h. The two individual treatment controls for the sequential treatment regime involved substituting one of the drug treatments with drug-free media. […] Drug interactions were analysed using the Calcusyn software package (BioSoft, Cambridge, U.K.) described below.

COLO205 = experiment: MTT growth inhibition assay, single agent; conditions: read-out: Antiproliferative effects IC50s (MTT assay)
Method: (§1) All cell lines were obtained from the ATCC (Rockville, Md.). Cells were grown as monolayers in RPMI medium supplemented with 10% fetal calf serum (Invitrogen, Cergy-Pontoise, France), 2 mM glutamine, 100 units/ml penicillin and 100 μg/ml streptomycin. All cells were split twice a week using trypsin/EDTA (0.25% and 0.02%, respectively; Invitrogen, Cergy-Pontoise, France) and seeded at a concentration of 2.5×10^4 cells/ml. All cell lines were tested regularly for Mycoplasma contamination by PCR using a Stratagene kit (La Jolla, Calif.).
(§2) The MTT assay was carried out as described previously (Hansen M B, Nielsen S E, Berg K. Re-examination and further development of a precise and rapid dye method for measuring cell growth/cell kill. J Immunol Methods. 1989 May 12; 119(2):203-10). In brief, cells were seeded in 96-well tissue culture plates at a density of 2×10^3 cells/well. Cell viability was determined after a 120-hour incubation, by the calorimetric conversion of yellow, water-soluble tetrazolium MTT (3-[4,5-dimethylthiazol-2-yl]-2,5-diphenyltetrazolium bromide; Sigma, Saint-Quentin Fallavier, France), into purple, water-insoluble formazan. This reaction is catalyzed by mitochondrial dehydrogenases and is used to estimate the relative number of viable cells (Mosmann, T, Rapid calorimetric assay for cellular growth and survival: application to proliferation and cytotoxicity assays. J Immunol Methods. 1983 Dec. 16; 65 (1-2):55-63). Cells were incubated with 0.4 mg/ml MTT for 4 hours at 37° C. After incubation, the supernatant was discarded, the cell pellet was resuspended in 0.1 ml of DMSO and the absorbance was measured at 560 nm using a microplate reader (Dynatech, Michigan). Wells with untreated cells or with drug-containing medium without cells were used as positive and negative controls, respectively. Growth inhibition curves were plotted as a percentage of untreated control cells.
(§3) The cells were seeded at 2×10^3 cells/well in 96-well plates and treated 24 hours later with increasing concentrations of CYC682. After incubation times of 1 hour, 24 hours or 48 hours, the cells were washed and post-incubated in drug-free medium for 72 hours. Growth inhibition was then determined by the MTT assay.

HCC2998 = experiment: MTT growth inhibition assay, single agent; conditions: read-out: Antiproliferative effects IC50s (MTT assay)
Method: as §1, §2, §3

HCT116 = experiment: MTT growth inhibition assay, single agent; conditions: read-out: Antiproliferative effects IC50s (MTT assay)
Method: as §1, §2, §3

HOP62 = experiment: MTT growth inhibition assay, single agent; conditions: read-out: Antiproliferative effects IC50s (MTT assay)
Method: as §1, §2, §3

HOP92 = experiment: MTT growth inhibition assay, single agent; conditions: read-out: Antiproliferative effects IC50s (MTT assay)
Method: as §1, §2, §3

HT29 = experiment: MTT growth inhibition assay, single agent; conditions: read-out: Antiproliferative effects IC50s (MTT assay)
Method: as §1, §2, §3

IGROV1 = experiment: MTT growth inhibition assay, single agent; conditions: read-out: Antiproliferative effects IC50s (MTT assay)
Method: as §1, §2, §3

MCF7 = experiment: MTT growth inhibition assay, single agent; conditions: 24 hours exposure, read-out: Antiproliferative effects IC50s (MTT assay)
Method: as §1, §2, §3

MDA-MB-435 = experiment: MTT growth inhibition assay, single agent; conditions: 24 hours exposure, read-out: Antiproliferative effects IC50s (MTT assay)
Method: as §1, §2, §3

OVCAR1 = experiment: MTT growth inhibition assay, single agent; conditions: 24 hours exposure, read-out: Antiproliferative effects IC50s (MTT assay)
Method: as §1, §2, §3

COLO205 cancer cell line = experiment: CYC682 drug-combination study (MTT, Chou and Talalay combination index, isobolograms); conditions: COLO205
Method: (§4) For simultaneous drug exposure, cells were seeded at 2×10^3 cells/well in 96-well plates and treated 24 hours later with increasing concentrations of CYC682 alone or with various concentrations of another drug corresponding to the IC20, IC40 or IC60 values. After approximately four doubling times (120 hours), the growth inhibitory effect was measured by the MTT assay.
(§5) Cells were seeded at 2×10^3 cells/well in 96-well plates and allowed to grow for 24 hour. Cells were then exposed to various concentrations of the first drug for 1 hour/24 hours/48 hours, the drug was removed, the cells were washed and the second drug was added. After additional drug exposure, the second drug was removed, the cells were washed and incubated in drug-free medium for 72 hours. Growth inhibition was then determined by the MTT assay.
(§6) Effects of drug combinations were evaluated using the Chou and Talalay method which is based on the median-effect principle (Chou T C, Talalay P. Quantitative analysis of dose-effect relationships: the combined effects of multiple drugs or enzyme inhibitors. Adv Enzyme Regul. 1984; 22:27-55). […] On the basis of the slope of the curve for each drug in a combination, it can be determined whether the drugs have mutually nonexclusive effects (e.g., independent or interactive modes of action).
(§7) The combination index (CI) is then determined by the equation:
(§8) CI=[(C)1/(Cx)1]+[(C)2/(Cx)2]+[α(C)1(C)2/(Cx)1(Cx)2],
(§9) where (Cx)1 is the concentration of drug 1 required to produce an x percent effect of that drug alone, and (C)1, the concentration of drug 1 required to produce the same x percent effect in combination with (C)2. If the mode of action of the drugs is mutually exclusive or nonexclusive, then α is 0 or 1, respectively. CI values will be calculated with this equation using different values of fa (i.e., for different degrees of cell growth inhibition). CI values of <1 indicate synergy, the value of 1 indicates additive effects, and values >1 indicate antagonism. Data were analyzed on an IBM-PC computer using concentration-effect analysis for microcomputer software (Biosoft, Cambridge, UK). For statistical analysis and graphs we will use Instat and Prism software (GraphPad, San Diego, USA). The dose-effect relationships for the drugs tested, alone or in paired combinations, were subjected to median-effect plot analysis to determine their relative potency (IC50), shape (m), and conformity (r) in each selected cell line. As stated above, the IC50 and m values were respectively used to calculate synergism and antagonism on the basis of the CI equation. Results were expressed as the mean±standard deviation of at least 3 experiments performed in duplicate. In each experiment, cells were exposed to the paired combinations for 48 hours as described above. Means and standard deviations were compared using Student's t-test (two-sided p value).
(§10) The effect of sequential and simultaneous exposure (FIG. 2) to CYC682 with oxaliplatin, doxorubicin, docetaxel and gemcitabine was studied in two sensitive colon cancer cell lines—COLO205 and HCT116 using combination indices that represent an affected fraction for the concentration of drugs corresponding to IC50 as previously described by Chou and Talalay.

HCT116 cancer cell line = experiment: as above; conditions: HCT116
Method: as §4, §5, §6, §7, §8, §9, §10

[1] = named agent in combination with CNDAC, H1299, CNDAC 24 h then other agent 72 h
[2] = named agent in combination with CNDAC, H1299, named agent 24 h then CNDAC 72 h
[3] = named agent in combination with CNDAC, H1299
[4] = named agent given prior to CYC682
[5] = CYC682 given prior to named agent

Q: For `CCC1=C[C@@H]2CN(C1)Cc1c([nH]c3ccccc13)[C@@](C(=O)OC)(c1cc3c(cc1OC)N(C)[C@H]1[C@@](O)(C(=O)OC)[C@H](OC(C)=O)[C@]4(CC)C=CCN5CC[C@]31[C@@H]54)C2` [Vinorelbine], which “Interaction with CNDAC (in words)” value (NSCLC cell line H1299; H1299, all three of the treatment regimes tested) is on record?
A: The value was “synergy”.

Q: And the “Combination Index at ED75, CNDAC pretreatment” value (NSCLC cell line H1299; [1])?
A: The value was 0.67.

Q: What about the “Combination Index at ED90, CNDAC pretreatment” value (NSCLC cell line H1299; [1]) of the same molecule?
A: The value was 0.67.

Q: What about the “Combination Index at ED50, CNDAC pretreatment” value (NSCLC cell line H1299; named agent in combination with CNDAC, H1299, CNDAC 24 h then other agent 72 h, C.I. <1 synergistic, 1 additive, >1 antagonistic) of the same molecule?
A: Its value is 1.04.

Q: And the “Combination Index at ED50, Other (named agent) pretreatment” value (NSCLC cell line H1299; [2])?
A: Its value is 0.60.

Q: And the “Combination Index at ED75, Other (named agent) pretreatment” value (NSCLC cell line H1299; [2])?
A: The value was 0.56.

Q: And the “Combination Index at ED90, Other (named agent) pretreatment” value (NSCLC cell line H1299; [2])?
A: The value was 0.66.

Q: What about the “Combination Index at ED50, Concomitant” value (NSCLC cell line H1299; [3]) of the same molecule?
A: Its value is 0.63.

Q: And the “Combination Index at ED75, Concomitant” value (NSCLC cell line H1299; [3])?
A: Its value is 0.97.

Q: What about the “Combination Index at ED90, Concomitant” value (NSCLC cell line H1299; [3]) of the same molecule?
A: The value was 2.25.

Q: With `Nc1ccn([C@@H]2O[C@H](CO)[C@@H](O)C2(F)F)c(=O)n1` [Gemcitabine, 2′-deoxy-2′,2′-difluorocytidine] as the molecule, how does the IC50 (COLO205; Homo sapiens, COLO 205, 24 hours exposure) read?
A: Its IC50 is 200 ± 100 nM.

Q: And the IC50 (HCC2998; Homo sapiens, HCC 2998, 24 hours exposure)?
A: Its IC50 is 10 ± 2 nM.

Q: What about the IC50 (HCT116; Homo sapiens, HCT-116, 24 hours exposure) of the same molecule?
A: Its IC50 is 50 ± 10 nM.

Q: What about the IC50 (HOP62; Homo sapiens, HOP-62, 24 hours exposure) of the same molecule?
A: Its IC50 is 10 ± 2 nM.

Q: And the IC50 (HOP92; Homo sapiens, HOP-92, 24 hours exposure)?
A: The IC50 was 20 ± 4 nM.

Q: And the IC50 (HT29; Homo sapiens, HT-29, 24 hours exposure)?
A: The IC50 was 15 ± 3 nM.

Q: And the IC50 (IGROV1; Homo sapiens, IGROV-1, 24 hours exposure)?
A: Its IC50 is 20 ± 4 nM.

Q: What about the IC50 (MCF7; Homo sapiens) of the same molecule?
A: The IC50 was 10 ± 2 nM.

Q: What about the IC50 (MDA-MB-435; Homo sapiens) of the same molecule?
A: The IC50 was 40 ± 8 nM.

Q: And the IC50 (OVCAR1; Homo sapiens)?
A: The IC50 was 1200 ± 200 nM.

Q: And the “Interaction with CYC682 (isobologram)” value (COLO205 cancer cell line; [4])?
A: The value was “synergistic”.

Q: And the “Interaction with CYC682 (isobologram)” value (HCT116 cancer cell line; [4])?
A: The value was “synergistic”.

Q: And the “Interaction with CNDAC at ED50 (in words)” value (NSCLC cell line H1299; H1299, concomitant treatment)?
A: Its value is “synergy”.

Q: What about the “Interaction with CNDAC (in words), summary of Table 3” value (NSCLC cell line H1299; combination with CNDAC, regime not specified) of the same molecule?
A: The value was “synergistic drug interactions”.

Q: What about the “Combination Index at ED50, Concomitant” value (NSCLC cell line H1299; [3]) of the same molecule?
A: Its value is 0.65.

Q: What about the “Combination Index at ED75, Concomitant” value (NSCLC cell line H1299; [3]) of the same molecule?
A: Its value is 1.83.

Q: What about the “Combination Index at ED90, Concomitant” value (NSCLC cell line H1299; [3]) of the same molecule?
A: Its value is 6.11.

Q: What does the source list for `O=C(O)C(=O)O.[NH-][C@@H]1CCCC[C@H]1[NH-].[Pt+2]` [Oxaliplatin]?
A: IC50 (COLO205; 24 hours exposure): 8000 ± 1600 nM; IC50 (HCC2998; 24 hours exposure): 4000 ± 1400 nM; IC50 (HCT116; 24 hours exposure): 20000 ± 4000 nM; IC50 (HOP62; 24 hours exposure): 200000 ± 40000 nM; IC50 (HOP92; 24 hours exposure): 1400 ± 200 nM; IC50 (HT29; 24 hours exposure): 60000 ± 12000 nM; IC50 (IGROV1; 24 hours exposure): 107000 ± 21000 nM; IC50 (MCF7): 35000 ± 7000 nM; IC50 (MDA-MB-435): 37000 ± 21000 nM; IC50 (OVCAR1): 50000 ± 10000 nM; Interaction with CYC682 (isobologram) (COLO205 cancer cell line; [5]): synergy; Interaction with CYC682 (isobologram) (HCT116 cancer cell line; [5]): synergistic activity; Interaction with CYC682 (isobologram) (HCT116 cancer cell line; [4]): synergistic activity
